Data reported in ChEMBL document CHEMBL5532658 (Eur J Med Chem, 2024).
Calls of active or inactive are those of the source. No cut-off for these calls is given here.

Tests used:
[1] = Half life in CD1 mouse at 1 mg/kg, iv measured upto 24 hrs by LC-MS/MS analysis; format: ADME, organism-based; details: in vivo
MDA-MB-453 [2] = assay: Downregulation of Rb protein phosphorylation at Thr821 in human MDA-MB-453 cells incubated for 24 hrs by Western blot analysis; format: functional, cell-based; details: dose 37-333 nM
[3] = AUC(0 to t) in CD1 mouse at 1 mg/kg, iv measured upto 24 hrs by LC-MS/MS analysis; format: ADME, organism-based; details: in vivo
MDA-MB-231 [4] = assay: Downregulation of Rb protein phosphorylation at Thr821 in human MDA-MB-231 cells incubated for 24 hrs by Western blot analysis; format: functional, cell-based; details: dose 37-333 nM
MDA-MB-453 [5] = assay: Downregulation of Rb protein phosphorylation at Ser608 in human MDA-MB-453 cells incubated for 24 hrs by Western blot analysis; format: functional, cell-based; details: dose 37-333 nM
MDA-MB-231 [6] = assay: Downregulation of Rb protein phosphorylation at Ser807 in human MDA-MB-231 cells incubated for 24 hrs by Western blot analysis; format: functional, cell-based; details: dose 37-333 nM
[7] = target: T1, Dual specificity mitogen-activated protein kinase kinase 5 (Homo sapiens, UniProt Q13163); assay: Inhibition of MAP2K5 (unknown origin) by discoverX kinomescan assay
T1 sequence (Q13163 whole entry): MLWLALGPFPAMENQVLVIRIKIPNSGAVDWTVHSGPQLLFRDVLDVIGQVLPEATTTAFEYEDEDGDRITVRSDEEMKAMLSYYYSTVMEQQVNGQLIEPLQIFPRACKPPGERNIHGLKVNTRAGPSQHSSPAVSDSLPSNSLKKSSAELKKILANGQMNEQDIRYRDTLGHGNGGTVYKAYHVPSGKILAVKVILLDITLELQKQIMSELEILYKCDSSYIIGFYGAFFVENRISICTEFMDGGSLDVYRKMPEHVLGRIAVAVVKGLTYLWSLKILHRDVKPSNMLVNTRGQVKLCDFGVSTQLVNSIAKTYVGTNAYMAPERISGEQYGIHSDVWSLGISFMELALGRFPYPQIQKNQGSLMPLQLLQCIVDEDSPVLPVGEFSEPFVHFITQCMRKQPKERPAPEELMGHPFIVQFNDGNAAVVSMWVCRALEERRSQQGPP

MDA-MB-231 [8] = assay: Downregulation of Rb protein phosphorylation at Thr826 in human MDA-MB-231 cells incubated for 24 hrs by Western blot analysis; format: functional, cell-based; details: dose 37-333 nM
[9] = target: T2, Cyclin-dependent kinase-like 5 (Homo sapiens) (UniProt O76039); assay: Inhibition of CDKL5 (unknown origin) at 1 uM by discoverX kinomescan assay
T2 sequence (whole entry): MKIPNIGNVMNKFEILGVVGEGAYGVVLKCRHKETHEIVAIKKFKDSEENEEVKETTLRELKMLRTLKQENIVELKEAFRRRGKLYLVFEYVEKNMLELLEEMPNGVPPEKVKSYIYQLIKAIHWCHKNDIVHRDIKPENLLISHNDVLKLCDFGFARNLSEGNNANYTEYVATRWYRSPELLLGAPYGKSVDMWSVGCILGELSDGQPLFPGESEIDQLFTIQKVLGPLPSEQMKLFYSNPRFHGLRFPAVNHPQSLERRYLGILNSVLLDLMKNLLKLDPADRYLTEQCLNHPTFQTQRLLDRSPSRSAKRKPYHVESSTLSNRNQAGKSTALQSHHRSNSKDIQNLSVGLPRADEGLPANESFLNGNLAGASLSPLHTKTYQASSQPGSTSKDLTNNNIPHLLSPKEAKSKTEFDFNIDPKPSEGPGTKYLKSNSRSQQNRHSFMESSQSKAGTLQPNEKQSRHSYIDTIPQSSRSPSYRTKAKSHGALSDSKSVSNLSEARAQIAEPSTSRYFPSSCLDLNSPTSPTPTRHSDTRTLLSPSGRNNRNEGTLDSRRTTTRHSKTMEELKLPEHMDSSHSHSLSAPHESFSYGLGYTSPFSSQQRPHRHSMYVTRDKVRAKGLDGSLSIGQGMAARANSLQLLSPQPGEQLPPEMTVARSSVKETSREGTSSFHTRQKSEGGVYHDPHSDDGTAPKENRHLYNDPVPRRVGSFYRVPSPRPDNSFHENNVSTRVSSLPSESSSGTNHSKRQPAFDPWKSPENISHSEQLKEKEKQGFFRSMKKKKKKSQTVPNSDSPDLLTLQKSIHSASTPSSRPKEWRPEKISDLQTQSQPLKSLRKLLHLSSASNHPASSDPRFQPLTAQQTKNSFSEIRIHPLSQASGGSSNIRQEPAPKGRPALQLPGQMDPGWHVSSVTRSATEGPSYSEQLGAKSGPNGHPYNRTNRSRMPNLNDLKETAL

[10] = Clearance in CD1 mouse at 1 mg/kg, iv measured upto 24 hrs by LC-MS/MS analysis; format: ADME, organism-based; details: in vivo
MDA-MB-453 [11] = assay: Downregulation of Rb protein phosphorylation at Ser780 in human MDA-MB-453 cells incubated for 24 hrs by Western blot analysis; format: functional, cell-based; details: dose 37-333 nM
CDK7/Cyclin H/MNAT1 = CDK7/Cyclin H/MNAT1 (Homo sapiens, UniProt P50613); assay: Inhibition of human His-tagged CDK7/cyclin H/MNAT1 expressed in baculovirus infected insect cells preincubated for 10 mins followed by substrate and ATP addition and measured after 60 mins by ADP-Glo kinase assay; design: species or system Insect cell
MDA-MB-231 [12] = assay: Downregulation of Rb protein phosphorylation at Ser795 in human MDA-MB-231 cells incubated for 24 hrs by Western blot analysis; format: functional, cell-based; details: dose 37-333 nM
[13] = target: Cyclin-dependent kinase 13 (Homo sapiens) (UniProt Q14004); assay: Inhibition of CDK13 (unknown origin) at 1 uM by discoverX kinomescan assay
[14] = Volume of distribution at steady state in CD1 mouse at 1 mg/kg, iv measured upto 24 hrs by LC-MS/MS analysis; format: ADME, organism-based; details: in vivo, read-out: Vdss

Chain of Cyclin-dependent kinase 13 (Homo sapiens) (Q14004 whole entry, looked up): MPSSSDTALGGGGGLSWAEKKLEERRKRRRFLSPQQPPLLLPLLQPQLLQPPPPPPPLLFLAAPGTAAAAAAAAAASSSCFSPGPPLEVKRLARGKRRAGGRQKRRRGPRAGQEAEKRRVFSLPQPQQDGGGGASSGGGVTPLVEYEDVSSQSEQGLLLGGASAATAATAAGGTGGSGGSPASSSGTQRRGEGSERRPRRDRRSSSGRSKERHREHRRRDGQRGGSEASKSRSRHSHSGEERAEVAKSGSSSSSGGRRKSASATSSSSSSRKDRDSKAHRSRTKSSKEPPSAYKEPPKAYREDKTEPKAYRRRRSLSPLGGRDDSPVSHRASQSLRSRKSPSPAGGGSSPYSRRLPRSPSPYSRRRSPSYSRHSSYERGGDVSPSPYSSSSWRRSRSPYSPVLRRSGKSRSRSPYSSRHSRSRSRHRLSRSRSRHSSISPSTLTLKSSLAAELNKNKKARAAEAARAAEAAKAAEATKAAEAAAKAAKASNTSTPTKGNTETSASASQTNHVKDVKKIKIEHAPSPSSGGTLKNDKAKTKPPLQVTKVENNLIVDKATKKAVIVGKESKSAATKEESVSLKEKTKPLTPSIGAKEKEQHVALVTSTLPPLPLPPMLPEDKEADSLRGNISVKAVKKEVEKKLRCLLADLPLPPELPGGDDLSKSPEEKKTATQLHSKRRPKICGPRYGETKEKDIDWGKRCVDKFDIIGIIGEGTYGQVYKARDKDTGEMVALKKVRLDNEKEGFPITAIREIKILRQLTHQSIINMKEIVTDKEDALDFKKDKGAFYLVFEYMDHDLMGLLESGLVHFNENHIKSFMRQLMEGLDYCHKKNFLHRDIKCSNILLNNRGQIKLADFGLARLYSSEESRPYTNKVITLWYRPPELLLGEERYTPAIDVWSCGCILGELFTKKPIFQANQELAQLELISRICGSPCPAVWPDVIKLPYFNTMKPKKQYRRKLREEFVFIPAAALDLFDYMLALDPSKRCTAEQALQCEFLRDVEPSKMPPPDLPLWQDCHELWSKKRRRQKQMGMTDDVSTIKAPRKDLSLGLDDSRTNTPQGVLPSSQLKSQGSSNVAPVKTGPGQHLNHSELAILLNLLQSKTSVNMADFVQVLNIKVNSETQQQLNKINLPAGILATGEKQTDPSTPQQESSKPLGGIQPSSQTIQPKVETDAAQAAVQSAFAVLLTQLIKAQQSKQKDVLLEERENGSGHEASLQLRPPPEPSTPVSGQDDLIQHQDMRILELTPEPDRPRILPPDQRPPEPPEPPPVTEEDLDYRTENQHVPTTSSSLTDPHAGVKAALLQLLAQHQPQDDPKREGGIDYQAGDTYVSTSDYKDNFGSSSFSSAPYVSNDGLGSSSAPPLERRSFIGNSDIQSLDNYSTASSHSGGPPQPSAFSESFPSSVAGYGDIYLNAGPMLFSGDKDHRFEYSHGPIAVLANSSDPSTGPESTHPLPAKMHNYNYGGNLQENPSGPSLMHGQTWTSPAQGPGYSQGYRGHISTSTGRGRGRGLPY
Chain of CDK7/Cyclin H/MNAT1 (P51946 whole entry): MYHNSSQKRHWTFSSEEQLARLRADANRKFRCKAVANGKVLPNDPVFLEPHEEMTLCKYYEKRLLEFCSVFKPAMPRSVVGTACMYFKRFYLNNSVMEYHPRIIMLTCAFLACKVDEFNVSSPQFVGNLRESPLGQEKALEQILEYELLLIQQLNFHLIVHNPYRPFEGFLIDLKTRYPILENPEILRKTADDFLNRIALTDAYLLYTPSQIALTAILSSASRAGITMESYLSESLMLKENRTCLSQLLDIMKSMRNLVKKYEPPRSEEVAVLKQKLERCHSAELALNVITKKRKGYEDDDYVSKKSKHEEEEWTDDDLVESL
Chain of CDK7/Cyclin H/MNAT1 (P50613 whole entry): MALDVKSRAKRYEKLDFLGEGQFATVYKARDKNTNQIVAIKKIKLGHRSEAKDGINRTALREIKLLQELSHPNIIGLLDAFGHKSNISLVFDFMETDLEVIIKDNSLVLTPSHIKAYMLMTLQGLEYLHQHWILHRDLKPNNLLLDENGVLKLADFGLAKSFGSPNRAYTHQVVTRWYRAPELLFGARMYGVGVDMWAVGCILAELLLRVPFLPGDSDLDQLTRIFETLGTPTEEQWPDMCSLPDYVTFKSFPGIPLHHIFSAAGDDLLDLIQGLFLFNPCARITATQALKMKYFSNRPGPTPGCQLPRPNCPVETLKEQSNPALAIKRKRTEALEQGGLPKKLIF
Chain of CDK7/Cyclin H/MNAT1 (P51948 whole entry, further chain): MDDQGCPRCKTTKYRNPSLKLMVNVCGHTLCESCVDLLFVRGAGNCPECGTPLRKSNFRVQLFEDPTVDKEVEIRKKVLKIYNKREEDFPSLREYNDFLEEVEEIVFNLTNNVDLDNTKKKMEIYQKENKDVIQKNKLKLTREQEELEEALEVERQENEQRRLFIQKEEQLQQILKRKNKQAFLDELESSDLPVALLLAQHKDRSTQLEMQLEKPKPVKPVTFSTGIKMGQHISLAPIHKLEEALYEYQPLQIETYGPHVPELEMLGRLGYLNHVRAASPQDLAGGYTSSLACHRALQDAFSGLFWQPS

half-life [1]: 1.9 h
AUC(0-t) at 24 h [3]: 230 ng·h/mL
IC50 [7]: 170 nM
inhibition [9]: inactive
clearance [10]: 68.3 mL/min/kg
IC50 (CDK7/Cyclin H/MNAT1): 6.5 nM
inhibition [13]: inactive
Vd [14]: 4.6 L/kg
Compound: CP(C)(=O)c1c(C#N)ccc2c(-c3nc(N[C@@H]4CNC[C@@H](F)C4)nc4ccsc34)c[nH]c12
Activity (MDA-MB-453 [2]): Dose-Dependent Effect
Activity (MDA-MB-231 [4]): Dose-Dependent Effect
Activity (MDA-MB-453 [5]): Dose-Dependent Effect
Activity (MDA-MB-231 [6]): Dose-Dependent Effect
Activity (MDA-MB-231 [8]): Dose-Dependent Effect
Activity (MDA-MB-453 [11]): Dose-Dependent Effect
Activity (MDA-MB-231 [12]): Dose-Dependent Effect
